These results are taken from patent US20240092745A1, “DRUGS AND COMPOSITIONS FOR THE TREATMENT OF OCULAR DISORDERS” (Graybug Vision, Inc., priority 2017, published 2024).

Broadly, the solubility is the dissolved amount per volume that the medium holds.

Series [1] in a line: In vitro stability of prodrugs (degradation to parent, RP-HPLC). The format is physicochemical. The conditions noted are these: for degradation kinetics / hydrolysis to parent, in words: PBS (pH 7) with 10% DMSO, RP-HPLC. The procedure: Prodrugs of interest were dissolved in PBS (pH 7) containing 10% DMSO (v/v) at a concentration of 0.1 mg/mL. The samples were incubated at 37° C. or 50° C. to simulate physiological and accelerated degradation conditions, respectively. At various time points, 500 μL of the solution was collected, filtered through a 0.2 μm nylon syringe filter and analyzed by RP-HPLC.
Timolol-Dorzolamide bi-functional prodrugs were dissolved in a mixture of DMSO and PBS and incubated at 37° C. The solution was aliquoted and analyzed by HPLC at pre-determined time points. Timolol-Dorzolamide bi-functional prodrugs were stable for about 3 hours as evidenced by the significant reduction of prodrug peaks in HPLC after 2-3 hours (FIG. 30A and FIG. 30B). Timolol parent drug was detected as the bi-functional prodrug degraded, whereas Dorzolamide appeared in the form of prodrugs, i.e., Dorzolamide linked with 1-3 PLA units.

A short description of series [2]: Determination of drug solubility in aqueous and organic solvent.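 As to all read-outs here: solid drug suspended at 50 mg/mL nominal in each solvent, vortexed and sonicated, then dissolved concentration in filtered supernatant quantified by HPLC against a calibration curve.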 The format is physicochemical. The conditions noted are these: for solubility: thermodynamic from solid.
Procedure: For each test, approximately 5-10 mg was transferred to a 10 mL glass vial. Aqueous or organic solvent was added to each vial to achieve an overall concentration of 50 mg/mL. After vortexing aggressively for 2-3 minutes and sonicating in a bath sonicator for 5 minutes, undissolved drug was spun down at 1200 rpm for 5 minutes to generate a pellet. The supernatant was collected and filtered through a 0.2 μm nylon syringe filter into HPLC vials for drug content analysis. Drug concentration was determined by comparing against a standard calibration curve.
Where [3] appears, read: organic solvent or mixture, Table 3B, DMSO, read-out: Solubility DMSO.
Setting [4] is: Table 3B, water, drug added to 50 mg/mL, read-out: Solubility Water.
The mark [5] stands for this setting: organic solvent or mixture, Table 3A, DMSO, read-out: Solubility DMSO.
Setting [6] is: Table 3A, water, drug added to 50 mg/mL, read-out: Solubility Water.
Setting [7] is: Table 3B, water, drug added to 50 mg/mL.
Where [8] appears, read: organic solvent or mixture, Table 3A, DCM, read-out: Solubility DCM.

Converted amounts (≈) assume the structure as drawn. “Also recorded” adds a separate entry of the source. Counter-ions that a name gives are not always drawn. Like-named read-outs stand apart in the source and are kept apart here.

As to `CC/C=C\C/C=C\C/C=C\C/C=C\C/C=C\C/C=C\CCC(=O)O[C@@H](C)C(=O)O[C@@H](C)C(=O)O[C@H](COc1nsnc1N1CCOCC1)CN(C(C)=O)C(C)(C)C` [Compound 102-1, N-acyl-Timolol-PLA (n=2)-DHA], in series [1] (37° C.), the “degradation kinetics / hydrolysis to parent, in words” value (shortened to “degradation kinetics / hydrolysis”) was “steady generation of intermediate degradants and slow hydrolysis to the parent compound; also recorded: steady generation of the intermediate N-acyl-Timolol-PLA (n=1)-DHA and slow hydrolysis to parent Timolol”.

Consider `CCCCCCCCCCCCCCCCCC(=O)O[C@@H](C)C(=O)O[C@H](COc1nsnc1N1CCOCC1)CN(C(C)=O)C(C)(C)C` [Compound 65-1], for which the solubility in series [2] (setting [3]) is greater than 100000 µg/mL; in series [2] (setting [4]), less than 1000 µg/mL. In series [1] (37° C.), the “degradation kinetics / hydrolysis” value was “resistant to hydrolysis and failed to release the parent over the course of the study; also recorded: resistant to hydrolysis”.

On to `CCOC(=O)CCC(=O)O[C@H](COc1nsnc1N1CCOCC1)CN(C(=O)[C@H](C)OC(=O)[C@H](C)OC(C)=O)C(C)(C)C` [Compound 117-6, Timolol-bis-N-acetyl-PLA(n=2)-O-ethyl-succinate], for which the solubility is greater than 50000 µg/mL in series [2] (setting [3]) and less than 1000 µg/mL in series [2] (setting [4]). Further, in series [1] (by day 13, 37° C.), the “polymer hydrolyzed to release free Timolol” value is recorded as “approximately 50%”.

As to `CCN[C@H]1C[C@H](C)S(=O)(=O)c2sc(S(=O)(=O)NC(=O)[C@H](C)OC(=O)[C@H](C)OC(=O)[C@H](C)OC(=O)CCCC(=O)O[C@@H](CNC(C)(C)C)COc3nsnc3N3CCOCC3)cc21` [Compound 64-4, Timolol-O-glutarate-PLA(n=3)-Dorzolamide maleate salt], in series [1] (37° C.), the “time in which prodrug cleaves to afford the active moieties” value is “less than 5 hours”.

With `CCOC(=O)CCC(=O)O[C@H](COc1nsnc1N1CCOCC1)CN(C(=O)[C@H](C)OC(=O)[C@H](C)OC(=O)[C@H](C)OC(=O)[C@H](C)OC(C)=O)C(C)(C)C` [Compound 120-1, Timolol-bis-N-acetyl-PLA(n=4)-O-ethyl succinate], the solubility is greater than 50000 µg/mL in series [2] (setting [3]) and less than 1000 µg/mL in series [2] (setting [4]). Besides, in series [1] (37° C.), the “degradation kinetics / hydrolysis” value is listed as “degraded to free Timolol incompletely by day 13”.

Turning to `CC(=O)O[C@H](C)C(=O)O[C@@H](CNC(C)(C)C)COc1nsnc1N1CCOCC1.O=C(O)/C=C\C(=O)O` [Compound 44-2, Timolol-acetyl PLA (n=1) maleate], the solubility was greater than 50000 µg/mL in series [2] (setting [5]) and less than 1000 µg/mL in series [2] (setting [6]).

For `COc1cccc(CN(CCOC(=O)[C@H](C)OC(=O)[C@H](C)OC(=O)[C@H](C)OC(=O)[C@H](C)OC(C)=O)C(=O)Nc2ccc(-c3cnn(C(=O)[C@H](C)OC(=O)[C@H](C)OC(=O)[C@H](C)OC(=O)[C@H](C)OC(C)=O)c3)cc2)c1` [Compound 113-1, SR5834-bis-acetyl PLA(n=4)], the figures for the solubility in series [2] (setting [3]) and in series [2] (setting [4]) were 50000 µg/mL (≈ 48.7 mM) and less than 1000 µg/mL, respectively.

For `CC(=O)O[C@@H](C)C(=O)O[C@@H](C)C(=O)O[C@@H](C)C(=O)O[C@@H](C)C(=O)O[C@@H](C)C(=O)O[C@@H](C)C(=O)O[C@@H](C)C(=O)O[C@@H](C)C(=O)N1CCN=C1Nc1ccc2nccnc2c1Br` [Compound 109-1, Brimonidine-acetyl PLA(n=8)], the solubility is greater than 50000 µg/mL in series [2] (setting [5]) and less than 100 µg/mL in series [2] (setting [6]).

As to `CCN[C@H]1C[C@H](C)S(=O)(=O)c2sc(S(N)(=O)=O)cc21` [Dorzolamide, reference compound], in series [2] (Table 3B, DCM), the “Solubility DCM” value is less than 1000 µg/mL. Further, in series [2] (Table 3B, DMSO), the “Solubility DMSO” value was less than 1000 µg/mL. For the same molecule, the “Solubility Water” value in series [2] (setting [7]) was greater than 50000 µg/mL. The solubility was less than 1000 µg/mL in series [2] (setting [8]), less than 1000 µg/mL in series [2] (setting [5]) and greater than 50000 µg/mL in series [2] (setting [6]).

On to `CC(=O)O[C@@H](CNC(C)(C)C)COc1nsnc1N1CCOCC1.O=C(O)/C=C\C(=O)O` [Compound 35-4, Acetic acid (S)-1-(tert-butylamino-methyl)-2-(4-morpholin-4-yl-[1,2,5]thiadiazol-3-yloxy)-ethyl ester maleate], for which the values for the solubility in series [2] (setting [5]) and in series [2] (setting [6]) were greater than 50000 µg/mL and less than 1000 µg/mL, respectively.

For the molecule `CCCCC/C=C\C/C=C\CCCCCCCC(=O)O[C@@H](CNC(C)(C)C)COc1nsnc1N1CCOCC1.O=C(O)/C=C\C(=O)O` [Compound 70-1, Timolol-O-linoleic acid maleate], the solubility is greater than 50000 µg/mL in series [2] (setting [3]) and less than 10 µg/mL in series [2] (setting [4]). For the same molecule, in series [1] (37° C.), the “degradation kinetics / hydrolysis” value is listed as “degraded steadily over the 4-day period, releasing parent Timolol in a linear rate; also recorded: steady generation of the parent Timolol”.

In the case of `CC(=O)N(C[C@@H](COc1nsnc1N1CCOCC1)OC(=O)[C@H](C)OC(=O)[C@H](C)O)C(C)(C)C` [Compound 69-1], the solubility in series [2] (setting [3]) is greater than 100000 µg/mL; in series [2] (setting [4]), less than 6300 µg/mL.

Take `CCCCCCCCCCCCCCCCCC(=O)O[C@@H](C)C(=O)O[C@@H](C)C(=O)O[C@@H](C)C(=O)O[C@@H](C)C(=O)NS(=O)(=O)c1cc2c(s1)S(=O)(=O)N(CCCOC)CC2NCC` (stereo partly drawn) [Compound 15-2, Octadecanoic acid (S)-1-[(S)-1-((S)-1-{(S)-2-[4-ethylamino-2-(3-methoxy-propyl)-1,1-dioxo-1,2,3,4-tetrahydro-1λ*6*-thieno[3,2-e][1,2]thiazine-6-sulfonylamino]-1-methyl-2-oxo-ethoxycarbonyl}-ethoxycarbonyl)-ethoxycarbonyl]-ethyl ester]: the solubility was greater than 50000 µg/mL in series [2] (setting [5]) and less than 1000 µg/mL in series [2] (setting [6]).

`CC(=O)O[C@@H](C)C(=O)O[C@@H](C)C(=O)O[C@@H](C)C(=O)N1CCN=C1Nc1ccc2nccnc2c1Br` [Compound 26-2, (S)-2-((S)-2-Acetoxy-propionyloxy)-propionic acid (S)-2-[2-(5-bromo-quinoxalin-6-ylamino)-4,5-dihydro-imidazol-1-yl]-1-methyl-2-oxo-ethyl ester]: the solubility in series [2] (setting [5]) was greater than 50000 µg/mL; in series [2] (setting [6]) it was less than 1000 µg/mL.

With `CC(=O)O[C@@H](C)C(=O)O[C@@H](C)C(=O)O[C@@H](C)C(=O)O[C@@H](C)C(=O)N1CCN=C1Nc1ccc2nccnc2c1Br` [Compound 27-2, (S)-2-[(S)-2-((S)-2-Acetoxy-propionyloxy)-propionyloxy]-propionic acid (S)-2-[2-(5-bromo-quinoxalin-6-ylamino)-4,5-dihydro-imidazol-1-yl]-1-methyl-2-oxo-ethyl ester], the solubility in series [2] (setting [5]) was greater than 50000 µg/mL; in series [2] (setting [6]), less than 1000 µg/mL.

`COc1cccc(CN(CCOC(=O)[C@H](C)OC(=O)[C@H](C)OC(=O)[C@H](C)OC(=O)[C@H](C)OC(C)=O)C(=O)Nc2ccc(-c3cn[nH]c3)cc2)c1` [Compound 88-3, SR5834-acetyl PLA(n=4)]: the solubility in series [2] (setting [3]) is greater than 50000 µg/mL.

As for `CCCCCCCCCCCCCCCCCC(=O)O[C@@H](C)C(=O)O[C@@H](C)C(=O)O[C@@H](C)C(=O)O[C@@H](C)C(=O)N1CCN=C1Nc1ccc2nccnc2c1Br` [Compound 29-2, Octadecanoic acid (S)-1-[(S)-1-((S)-1-{(S)-2-[2-(5-bromo-quinoxalin-6-ylamino)-4,5-dihydro-imidazol-1-yl]-1-methyl-2-oxo-ethoxycarbonyl}-ethoxycarbonyl)-ethoxycarbonyl]-ethyl ester], the figures for the solubility in series [2] (setting [5]) and in series [2] (setting [6]) were greater than 50000 µg/mL and less than 1000 µg/mL, respectively.

For `CC(C)(C)NC[C@@H](COc1nsnc1N1CCOCC1)OC(=O)CCCC(=O)O[C@@H](CNC(C)(C)C)COc1nsnc1N1CCOCC1.O=C(O)/C=C\C(=O)O` [Compound 77-1, Timolol-glutaric acid-Timolol-maleate], the solubility in series [2] (setting [3]) is greater than 100000 µg/mL; in series [2] (setting [4]), less than 1000 µg/mL.

As for `CCCCCCCCCCCCCCCCCC(=O)O[C@@H](C)C(=O)O[C@@H](C)C(=O)O[C@H](COc1nsnc1N1CCOCC1)CN(C(C)=O)C(C)(C)C` [Compound 66-1, N-Acyl-Timolol-PLA (n = 2) Stearate], the solubility was greater than 100000 µg/mL in series [2] (setting [3]) and less than 1000 µg/mL in series [2] (setting [4]).

Turning to `CCN[C@H]1CN(CCCOC)S(=O)(=O)c2sc(S(N)(=O)=O)cc21` [Brinzolamide, reference compound], in series [2] (Table 3B, DCM), the “Solubility DCM” value was less than 7500 µg/mL. Also, the “Solubility DMSO” value in series [2] (Table 3B, DMSO) is greater than 50000 µg/mL. Besides, the “Solubility Water” value in series [2] (setting [7]) is less than 1000 µg/mL. Also, the solubility in series [2] (setting [8]) was less than 7500 µg/mL; in series [2] (setting [5]), greater than 50000 µg/mL; in series [2] (setting [6]), less than 1000 µg/mL.

On to `CC(=O)O[C@@H](C)C(=O)O[C@@H](C)C(=O)O[C@H](COc1nsnc1N1CCOCC1)CN(C(=O)[C@H](C)OC(=O)[C@H](C)OC(C)=O)C(C)(C)C` [Compound 118-1, Timolol-bis-N-acetyl-PLA(n=2)], for which the solubility in series [2] (setting [3]) is greater than 50000 µg/mL; in series [2] (setting [4]) it was less than 100 µg/mL. In addition, the “degradation kinetics / hydrolysis” value in series [1] (37° C.) is “degraded slightly faster than a Timolol-bis-N-acetyl PLA(n=4) (119-6)”.

For `CC(C)(C)NC[C@@H](COc1nsnc1N1CCOCC1)OC(=O)/C=C/C(=O)O[C@@H](CNC(C)(C)C)COc1nsnc1N1CCOCC1.O=C(O)/C=C\C(=O)O.O=C(O)/C=C\C(=O)O` [Compound 78-1, Timolol-fumurate-Timolol-maleate], the solubility in series [2] (setting [3]) was greater than 100000 µg/mL; in series [2] (setting [4]) it was less than 1000 µg/mL.

Turning to `CC(C)(C)NC[C@@H](COc1nsnc1N1CCOCC1)OC(=O)OC(C)(C)C` [Compound 36-2, Carbonic acid tert-butyl ester (S)-1-(tert-butylamino-methyl)-2-(4-morpholin-4-yl-[1,2,5]thiadiazol-3-yloxy)-ethyl ester], the solubility is greater than 50000 µg/mL in series [2] (setting [5]) and less than 1000 µg/mL in series [2] (setting [6]).
